How the values were obtained:
Type in all cases: cell-based
[1] = system: BGC (human gastric cancer cells); assay: Antitumor screening in vitro, MTT assay, BGC; details: 48 hours
Protocol: (§1) Cell lines: BGC (human gastric cancer cells), A375 (human malignant melanoma cells), 769-P (human renal carcinoma cells), KB (human oral epidermoid carcinoma cells), SK-OV-3 (human ovarian cancer cells), etc, were selected, and the test method was the MTT assay. Cisplatin was as a positive control.
(§2) Specific methods are as follows: cells growing well in the logarithmic phase were seeded in 96-well plates at a concentration of 1×10^4 cells/ml, and then were placed in 37° C., containing 5% CO2 incubator for 24 hours. After discarding the old solution, changed fresh medium, and added sterilization treatment compound, and then cultured for 48 hours. After discarding the culture medium, 20 ul RPMI1640 medium containing 5 mg/ml MTT were added to each well in 96-well plates and cells were cultured for 4 hours. After the supernatant was carefully removed, 100 μl DMSO was added to each well, and the plates were Oscillated about 10 min to dissolve the precipitate, followed by detecting OD value in wavelength 490 nm by the microplate reader. Cell survival rate for each sample concentrations was determined by the following formula: The mean survival rate %=the average OD value of sample group/the average OD value of control group×100%
(§3) Morphological studies by mapping with the logarithm of the drug concentration and the mean survival rate % of each sample to obtain IC50 values for each sample.

[2] = system: A375 (human malignant melanoma cells); assay: Antitumor screening in vitro, MTT assay, A375
Protocol: as §1, §2, §3

[3] = system: 769-P (human renal carcinoma cells); assay: Antitumor screening in vitro, MTT assay, 769-P; details: 48 hours, 769-P cells
Protocol: as §1, §2, §3

[4] = system: KB (human oral epidermoid carcinoma cells); assay: Antitumor screening in vitro, MTT assay, KB; details: 48 hours
Protocol: as §1, §2, §3

[5] = system: SK-OV-3 (human ovarian cancer cells); assay: Antitumor screening in vitro, MTT assay, SK-OV-3; details: 48 hours, SK-OV-3 cells
Protocol: as §1, §2, §3

Structure (SMILES)	IC50 [1] [µM]	IC50 ([2]; 48 hours) [µM]	IC50 [3] [µM]	IC50 [4] [µM]	IC50 [5] [µM]	IC50 ([1]; Homo sapiens) [µM]	IC50 ([2]; Homo sapiens, A-375, 48 hours) [µM]	IC50 ([3]; Homo sapiens) [µM]	IC50 ([4]; Homo sapiens) [µM]	IC50 ([5]; Homo sapiens) [µM]
CCOC(=O)c1cc2c3ccccc3n(CCCCCn3c4ccccc4c4cc(C(=O)OCC)nc(-c5cccnc5)c43)c2c(-c2cccnc2)n1 [Compound 29, 1,5-bis[3-ethyoxylcarbonyl-1-(pyridine-3-yl)-β-carboline-9-yl]pentane]	24.1	13	132	15.7	> 300	–	–	–	–	–
COc1cc(-c2nccc3c4ccccc4n(CCCCCCCn4c5ccccc5c5ccnc(-c6cc(OC)c(OC)c(OC)c6)c54)c23)cc(OC)c1OC [Compound 20, 1,7-bis[1-(3,4,5-trimethoxy)phenyl-β-carboline-9-yl) heptane]	> 300	4	3.3	7.6	> 300	–	–	–	–	–
CCOC(=O)c1cc2c3ccccc3n(CCCCCCCCCn3c4ccccc4c4cc(C(=O)OCC)nc(-c5cc(OC)c(OC)c(OC)c5)c43)c2c(-c2cc(OC)c(OC)c(OC)c2)n1 [Compound 28, 1,9-bis[1-(3,4.5-trimethoxy)phenyl-β-carboline-3-ethyoxylcarbonyl-9-yl]nonane]	> 300	218	44.6	> 300	> 300	–	–	–	–	–
CCCCOc1ccc2c3ccnc(C)c3n(CCCCCCn3c4cc(OCCCC)ccc4c4ccnc(C)c43)c2c1 [Compound 24, 1,6-bis(7-n-butoxy-1-methyl-β-carboline-9-yl) hexane]	–	–	–	–	–	> 300	> 300	56	> 300	> 300
N.N.[Cl][Pt][Cl] [Cisplatin, reference compound]	17.3	39.2	11.6	13.1	4.2	–	–	–	–	–
c1cncc(-c2nccc3c4ccccc4n(CCCCCCn4c5ccccc5c5ccnc(-c6cccnc6)c54)c23)c1 [Compound 32, 1,6-bis[1-(pyridine-3-yl)-β-carboline-9-yl) hexane]	–	–	–	–	–	14.1	5.3	> 300	13.3	14.9
CCOC(=O)c1cc2c3ccccc3n(CCCCCCn3c4ccccc4c4cc(C(=O)OCC)nc(-c5cccnc5)c43)c2c(-c2cccnc2)n1 [Compound 30, 1,6-bis[3-ethyoxylcarbonyl-1-(pyridine-3-yl)-β-carboline-9-yl]hexane]	> 300	> 300	> 300	> 300	68.3	–	–	–	–	–
c1ccc2c(c1)c1ccncc1n2CCCCCCCn1c2ccccc2c2ccncc21 [Compound 4, 1,7-bis(11-carboline-9-yl) heptane]	> 300	286	53	> 300	212	–	–	–	–	–
c1ccc2c(c1)c1ccncc1n2CCCCCCn1c2ccccc2c2ccncc21 [Compound 3, 1,6-bis(β-carboline-9-yl) hexane]	–	–	–	–	–	13.8	10.8	12.8	13.9	38.9

Continued, values first:

IC50 [1] [µM]	IC50 ([2]; 48 hours) [µM]	IC50 [3] [µM]	IC50 [4] [µM]	IC50 [5] [µM]	IC50 ([1]; Homo sapiens) [µM]	IC50 ([2]; Homo sapiens, A-375, 48 hours) [µM]	IC50 ([3]; Homo sapiens) [µM]	IC50 ([4]; Homo sapiens) [µM]	IC50 ([5]; Homo sapiens) [µM]	Structure (SMILES)
> 300	23.2	> 300	> 300	> 300	–	–	–	–	–	Clc1ccccc1-c1nccc2c3ccccc3n(CCCCCCn3c4ccccc4c4ccnc(-c5ccccc5Cl)c43)c12 [Compound 35]
–	–	–	–	–	> 300	19.6	4.6	> 300	> 300	CC(C)c1nccc2c3ccccc3n(CCCCCCCCCCn3c4ccccc4c4ccnc(C(C)C)c43)c12 [Compound 40, 1,10-bis[1-isopropyl-β-carboline-9-yl) decane]
–	–	–	–	–	> 300	10.4	82.1	> 300	> 300	Clc1ccccc1-c1nccc2c3ccccc3n(CCCCCCCn3c4ccccc4c4ccnc(-c5ccccc5Cl)c43)c12 [Compound 36, 1,7-bis[1-(2-chlorophenyl)-β-carboline-9-yl) heptane]
–	–	–	–	–	> 300	> 300	3.1	> 300	8.9	Brc1ccc2c(c1)c1ccncc1n2CCCCn1c2ccc(Br)cc2c2ccncc21 [Compound 41, 1,4-bis[6-bromo-βcarboline-9-yl) butane]

Source: US10011614B2, “Bis-β-carboline compound and preparation method, pharmaceutical composition and use thereof” (XINJIANG HUASHIDAN PHARMACEUTICAL RESEARCH CO., LTD., priority 2012, dated 2018)
